Reference: patent EP0126344A2, “Tripeptide esters of therapeutic agents” (ABBOTT LABORATORIES, priority 1983, dated 1984)

Columns and labels:
gastrointestinal tissue = experiment: Gastrointestinal motility in anesthetized dogs, strain gauge transducers (Example 30); settings: 1.0 mg./kg. intravenously; strain gauge readings; result in words
Description: Female beagle dogs having a weight of 7.0 to 11.0 kg. were anesthetized with pentobarbital and maintained in surgical anesthesia by supplemental I.V. injections of pentobarbital as needed. The body temperature of each dog was maintained at 36-37° C. The trachea was cannulated and the animal maintained on a respirator at 12 strokes/minute with a volume of 200 ml./stroke. The femoral artery was cannulated for blood pressure recording and both femoral veins were cannulated for intravenous injections and blood collection. Each dog was then prepared for gastrointestinal motility determinations as follows. […]
After an equilibration period of 15 minutes, a dose of 50 pg/.kg. of methacholine was administered intravenously to the dog over a period of thirty seconds and the strain gauge readings were monitored to obtain a standard measurement of reactivity of the gastrointestinal tract.
The strain gauge readings were again monitored to determine effect of the test compound on motility of the gastrointestinal tissue.

[1] = tested on: Staph. aureus, strain 642a; experiment: In vivo activity: survival of infected mice, subcutaneous administration (Example 28); settings: for ED50: Staphylococcus aureus, 642A, sc, 120 h, subcutaneous administration, mice infected with 100 x LD50 Staph. aureus, read-out: effective dose (ED50); for Mice Surviving: groups of ten mice, five days after infection
Description: (§1) Eight groups of ten female CF-1 mice, each weighing 18-20 g. were supplied with food and water ad lib and injected intraperitoneally with a lethal dose (100 x LD50) of Staph. aureus, strain 642a. At 1 and 5 hours after intraperitoneal infection, the mice were administered by intraperitoneal injection equal doses of either erythromycin A ("A") or 4"-L-leu-gly-L-pro-erythromycin A ("B") dissolved in a phosphate buffered saline solution.
The procedure of Example 25 was repeated except that the erythromycin A and 4"-L-leu-gly-L-pro-erythromycin A were administered subcutaneously instead of intraperitoneally.

[2] = tested on: Staph. aureus, strain 642a; experiment: In vivo activity: survival of infected mice, oral administration (Example 29); settings: after 0.5 ml homogenized milk; for ED50: Staphylococcus aureus, 642A, 120 h, oral administration, mice infected with 100 x LD50 Staph. aureus, read-out: effective dose (ED50); for Mice Surviving: groups of ten mice, five days after infection
Description: as §1
The procedure of Example 25 was repeated except that the erythromycin A and 4"-L-leu-gly-L-pro erythromycin A were administered orally, and that 0.5 ml of homogenized milk was administered orally to each mouse prior to administration of the test compound to minimize acid degredation of the test compound.

[3] = tested on: Staph. aureus, strain 642a; experiment: In vivo activity: survival of infected mice, intraperitoneal administration (Example 27); settings: for ED50: Staphylococcus aureus, 642A, ip, 120 h, intraperitoneal injection, mice infected with 100 x LD50 Staph. aureus, read-out: effective dose (ED50); for Mice Surviving: 5 days after infection
Description: as §1

Compound: CC[C@H]1OC(=O)[C@H](C)[C@@H](O[C@H]2C[C@@](C)(OC)[C@@H](O)[C@H](C)O2)[C@H](C)[C@@H](O[C@@H]2O[C@H](C)C[C@H](N(C)C)[C@H]2O)[C@](C)(O)C[C@@H](C)C(=O)[C@H](C)[C@@H](O)[C@]1(C)O [Erythromycin Lactobionate, erythromycin A lactobionate]
- effect of the test compound on motility of the gastrointestinal tissue (gastrointestinal tissue): pronounced stimulation of the stomach, duodenum, jejunum and ileum, with no apparent effect on the colon

Compound: CC[C@H]1OC(=O)[C@H](C)[C@@H](O[C@H]2C[C@@](C)(OC)[C@@H](OC(=O)[C@@H]3CCCN3C(=O)CNC(=O)[C@@H](N)CC(C)C)[C@H](C)O2)[C@H](C)[C@@H](O[C@@H]2O[C@H](C)C[C@H](N(C)C)[C@H]2O)[C@](C)(O)C[C@@H](C)C(=O)[C@H](C)[C@@H](O)[C@]1(C)O [B, 4"-L-leu-gly-L-pro-erythromycin A]
- ED50 [1]: 3.1 mg/kg
- Mice Surviving ([1]; total dose 0.6 mg/kg subcutaneous): 2
- Mice Surviving ([1]; total dose 2.6 mg/kg subcutaneous): 5
- Mice Surviving ([1]; total dose 10.5 mg/kg subcutaneous): 6
- Mice Surviving ([1]; total dose 41.1 mg/kg subcutaneous): 10
- ED50 [2]: 181 mg/kg
- Mice Surviving ([2]; total dose 3.2 mg/kg oral): 0
- Mice Surviving ([2]; total dose 12.8 mg/kg oral): 0
- Mice Surviving ([2]; total dose 51.3 mg/kg oral): 0
- Mice Surviving ([2]; total dose 205 mg/kg oral): 6
- ED50 [3]: 0.6 mg/kg
- Mice Surviving ([3]; total dose 0.6 mg/kg intraperitoneal, groups of ten mice): 5
- Mice Surviving ([3]; total dose 2.6 mg/kg intraperitoneal, groups of ten mice): 10
- Mice Surviving ([3]; total dose 10.5 mg/kg intraperitoneal, groups of ten mice): 10
- Mice Surviving ([3]; total dose 41.1 mg/kg intraperitoneal, groups of ten mice): 10

Compound: CC[C@H]1OC(=O)[C@H](C)[C@@H](O[C@H]2C[C@@](C)(OC)[C@@H](O)[C@H](C)O2)[C@H](C)[C@@H](O[C@@H]2O[C@H](C)C[C@H](N(C)C)[C@H]2O)[C@](C)(O)C[C@@H](C)C(=O)[C@H](C)[C@@H](O)[C@]1(C)O [A, erythromycin A]
- ED50 [1]: 2.8 mg/kg
- Mice Surviving ([1]; total dose 0.4 mg/kg subcutaneous): 1
- Mice Surviving ([1]; total dose 1.9 mg/kg subcutaneous): 1
- Mice Surviving ([1]; total dose 7.5 mg/kg subcutaneous): 10
- Mice Surviving ([1]; total dose 30 mg/kg subcutaneous): 10
- ED50 [2]: 110 mg/kg
- Mice Surviving ([2]; total dose 2.3 mg/kg oral): 0
- Mice Surviving ([2]; total dose 9.4 mg/kg oral): 0
- Mice Surviving ([2]; total dose 37.5 mg/kg oral): 0
- Mice Surviving ([2]; total dose 150 mg/kg oral): 7
- ED50 [3]: < 0.4 mg/kg
- Mice Surviving ([3]; total dose 0.4 mg/kg intraperitoneal, groups of ten mice): 9
- Mice Surviving ([3]; total dose 1.9 mg/kg intraperitoneal, groups of ten mice): 9
- Mice Surviving ([3]; total dose 7.5 mg/kg intraperitoneal, groups of ten mice): 10
- Mice Surviving ([3]; total dose 30 mg/kg intraperitoneal, at 1 and 5 hours after infection, groups of ten female CF-1 mice): 10
